Measured values as given in paper PMC3909100, “Biochemical, Stabilization and Crystallization Studies on a Molecular Chaperone (PaoD) Involved in the Maturation of Molybdoenzymes” (PLoS ONE, 2014).
Where “and” joins values, the source holds several entries; their conditions need not be identical. Equal entries are not always repeated.

T1: PaoD (Escherichia coli, UniProt P77183)
T1 construct: full length, expressed from plasmid pMN87 in E. coli BL21(DE3), Ni-TED purified (tag not described); dimer in solution
T1 sequence (P77183 1-318): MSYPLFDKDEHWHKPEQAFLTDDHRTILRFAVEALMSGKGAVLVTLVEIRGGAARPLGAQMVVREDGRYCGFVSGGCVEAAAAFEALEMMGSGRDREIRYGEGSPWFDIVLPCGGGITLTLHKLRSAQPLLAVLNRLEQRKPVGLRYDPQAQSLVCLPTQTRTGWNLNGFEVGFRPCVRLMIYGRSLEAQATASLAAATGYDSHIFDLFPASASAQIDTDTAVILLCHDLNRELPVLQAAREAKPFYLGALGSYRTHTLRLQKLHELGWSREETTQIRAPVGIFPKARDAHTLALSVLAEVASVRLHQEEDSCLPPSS

B1: PaoD (natural protein, Escherichia coli, UniProt P77183 1-318, looked up)
chain: T1 sequence (P77183 1-318)
notes: PaoD, XdhC-like molecular chaperone of the periplasmic aldehyde oxidoreductase PaoABC, last gene of the paoABCD operon of Escherichia coli; calculated mass 34.8 kDa; the tag is inferred from the Ni-TED column and imidazole elution; also called molecular chaperone PaoD; E. coli PaoD; source: E. coli BL21(DE3), plasmid pMN87, purified (Ni-TED chromatography)

How the values were obtained:
[1] = target: T1, PaoD; test: STD-NMR; format: binding; conditions: ca 30 µM PaoD, 3 mM ionic liquid, 50 mM Tris-HCl, 1 mM EDTA, 300 mM NaCl, pH 8.0, 310 K; signals from cation ring protons; weak surface interaction
[2] = target: T1, PaoD; test: ultrafiltration, bound cofactor oxidized to Form A, HPLC fluorescence; format: binding; conditions: 12 µM PaoD, 0-48 µM cofactor, 100 mM Tris-HCl, 300 mM NaCl, pH 7.2, 277 K
[3] = target: the molecule itself; test: SEC; freshly purified PaoD on Superdex 75 HR10/30, 50 mM Tris-HCl, 300 mM NaCl, pH 8.0, 283 K, 0.5 mL/min; column calibrated with Bio-Rad standards

Row | Molecule | STD-NMR [1] | other results
1 | CCCC[n+]1ccn(C)c1 [[C4mim]Cl] | aromatic protons of the cation were detected both for [C2OHmim]PF6 and [C4mim]Cl | 
2 | C[n+]1ccn(CCO)c1 [[C2OHmim]PF6] | aromatic protons of the cation were detected both for [C2OHmim]PF6 and [C4mim]Cl | 
3 | Nc1nc2c(c(=O)[nH]1)N[C@H]1C(S)=C(S)[C@@H](COP(=O)(O)O)O[C@H]1N2 [MPT] |  | ultrafiltration, bound cofactor oxidized to Form A, HPLC fluorescence [2]: The obtained chromatograms showed that Mo-MPT and MPT was bound to PaoD
4 | B1 |  | stoichiometry N [3]: 2 and 4
